Measured values reported in patent US7842838B2, “Pyrro[1,2-b]pyridazinone intermediates” (Anadys Pharmaceuticals, Inc., priority 2006, dated 2010).

biological target: NS5B polymerase (Hepatitis C virus genotype 1b, UniProt P26663); test: HCV NS5B polymerase inhibition assay (streptavidin-coated FlashPlate, [α-33P]GTP incorporation); format: biochemical; settings: not given
Experimental: Compounds were tested for HCV polymerase inhibition. Assays were performed in a 96-well streptavidin-coated FlashPlate using 20 nM enzyme, 0.5 μCi of [α-^33P]GTP, 0.6 μM GTP, and 250 nM 5′biotinylated oligo (rG13)/poly rC in 20 mM Tris-HCl, pH 7.5, 5 mM MgCl2, 5 mM dithiothreitol, […] bovine serum albumin, and 100 U/mL RNAse inhibitor. The reaction was stopped by aspiration after 75 min at 28° C. and the plate was washed several times. After washing and drying the plate, incorporated radioactivity was counted using a Microbeta scintillation counter. IC50 values were calculated relative to the uninhibited control and inhibition data were fitted to a 4-parameter IC50 equation.

NS5B polymerase, sequence (P26663 2420-3010): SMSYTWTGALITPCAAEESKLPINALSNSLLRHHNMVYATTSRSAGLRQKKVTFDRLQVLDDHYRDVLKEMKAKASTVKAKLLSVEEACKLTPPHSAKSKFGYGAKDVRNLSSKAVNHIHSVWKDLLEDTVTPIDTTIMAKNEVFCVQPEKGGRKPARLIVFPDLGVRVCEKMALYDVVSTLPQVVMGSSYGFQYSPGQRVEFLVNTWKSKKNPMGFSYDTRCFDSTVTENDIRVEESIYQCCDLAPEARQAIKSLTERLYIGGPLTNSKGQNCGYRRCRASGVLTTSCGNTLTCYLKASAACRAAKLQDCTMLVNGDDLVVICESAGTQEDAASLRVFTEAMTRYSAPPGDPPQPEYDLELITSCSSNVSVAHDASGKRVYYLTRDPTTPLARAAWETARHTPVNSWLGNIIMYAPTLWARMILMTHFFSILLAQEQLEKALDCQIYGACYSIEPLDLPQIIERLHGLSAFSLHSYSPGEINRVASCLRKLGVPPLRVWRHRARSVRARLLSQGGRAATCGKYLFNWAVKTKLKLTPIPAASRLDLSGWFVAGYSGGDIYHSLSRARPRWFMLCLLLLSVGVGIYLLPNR

| SMILES | IC50 [nM] |
| --- | --- |
| CC(C)CCn1c(=O)c(C2=Nc3ccc(NS(C)(=O)=O)cc3S(=O)(=O)N2)c(O)c2cccn21 [Example 3, N-{3-[4-Hydroxy-1-(3-methyl-butyl)-2-oxo-1,2-dihydro-pyrrolo[1,2-b]pyridazin-3-yl]-1,1-dioxo-1,4-dihydro-1λ^6-benzo[1,2,4]thiadiazin-7-yl}-methanesulfonamide] | < 100 |
| CS(=O)(=O)Nc1ccc2c(c1)S(=O)(=O)N=C(c1c(O)c3cccn3n(Cc3ccc(F)c(Cl)c3)c1=O)N2 [Example 17, N-{3-[1-(3-Chloro-4-fluoro-benzyl)-4-hydroxy-2-oxo-1,2-dihydro-pyrrolo[1,2-b]pyridazin-3-yl]-1,1-dioxo-1,4-dihydro-1λ^6-benzo[1,2,4]thiadiazin-7-yl}-methanesulfonamide] | < 100 |

same assay, conditions: 20 nM enzyme, 75 min at 28° C.; read-out: NS5B Polymerase IC50

| IC50 [nM] | SMILES |
| --- | --- |
| < 100 | CC(C)CCn1c(=O)c(C2=CS(=O)(=O)c3cc(NS(C)(=O)=O)ccc3N2)c(O)c2cccn21 [Example 16, N-{3-[4-Hydroxy-1-(3-methyl-butyl)-2-oxo-1,2-dihydro-pyrrolo[1,2-b]pyridazin-3-yl]-1,1-dioxo-1,4-dihydro-1λ^6-benzo[1,4]thiazin-7-yl}-methanesulfonamide] |
| < 100 | CN(c1ccc2c(c1)S(=O)(=O)N=C(c1c(O)c3cccn3n(CCC(C)(C)C)c1=O)N2)S(C)(=O)=O [Example 5, N-{3-[1-(3,3-Dimethyl-butyl)-4-hydroxy-2-oxo-1,2-dihydro-pyrrolo[1,2-b]pyridazin-3-yl]-1,1-dioxo-1,4-dihydro-1λ^6-benzo[1,2,4]thiadiazin-7-yl}-N-methyl-methanesulfonamide] |
| 100 to 3000 | CC(C)CCn1c(=O)c(C2=NS(=O)(=O)c3cc(N(C)S(C)(=O)=O)ccc3N2)c(O)c2cccn21 [Example 6, N-{3-[4-Hydroxy-1-(3-methyl-butyl)-2-oxo-1,2-dihydro-pyrrolo[1,2-b]pyridazin-3-yl]-1,1-dioxo-1,4-dihydro-1λ^6-benzo[1,2,4]thiadiazin-7-yl}-N-methyl-methanesulfonamide] |
| < 100 | CC(C)(C)CCn1c(=O)c(C2=CS(=O)(=O)c3cc(NS(C)(=O)=O)ccc3N2)c(O)c2cccn21 [Example 8, N-{3-[1-(3,3-Dimethyl-butyl)-4-hydroxy-2-oxo-1,2-dihydro-pyrrolo[1,2-b]pyridazin-3-yl]-1,1-dioxo-1,4-dihydro-1λ^6-benzo[1,4]thiazin-7-yl}-methanesulfonamide] |
| 100 to 3000 | O=c1c(C2=NS(=O)(=O)c3ccccc3N2)c(O)c2cccn2n1Cc1ccc(F)cc1 [Example 12, 3-(1,1-Dioxo-1,4-dihydro-1λ^6-benzo[1,2,4]thiadiazin-3-yl)-1-(4-fluoro-benzyl)-4-hydroxy-pyrrolo[1,2-b]pyridazin-2-one] |
| < 100 | CC(C)(C)CCn1c(=O)c(C2=NS(=O)(=O)c3cc(NS(C)(=O)=O)ccc3N2)c(O)c2cccn21 [Example 4, N-{3-[1-(3,3-Dimethyl-butyl)-4-hydroxy-2-oxo-1,2-dihydro-pyrrolo[1,2-b]pyridazin-3-yl]-1,1-dioxo-1,4-dihydro-1λ^6-benzo[1,2,4]thiadiazin-7-yl}-methanesulfonamide] |
| 100 to 3000 | CC(C)CCn1c(=O)c(C2=NS(=O)(=O)c3cc(NS(C)(=O)=O)ccc3N2)c(O)c2cc(C#N)cn21 [Example 15, N-{3-[6-Cyano-4-hydroxy-1-(3-methyl-butyl)-2-oxo-1,2-dihydro-pyrrolo[1,2-b]pyridazin-3-yl]-1,1-dioxo-1,4-dihydro-1λ^6-benzo[1,2,4]thiadiazin-7-yl}-methanesulfonamide] |
| 100 to 3000 | CN(c1ccc2c(c1)S(=O)(=O)N=C(c1c(O)c3cccn3n(Cc3ccc(F)cc3)c1=O)N2)S(C)(=O)=O [Example 10, N-{3-[1-(4-Fluoro-benzyl)-4-hydroxy-2-oxo-1,2-dihydro-pyrrolo[1,2-b]pyridazin-3-yl]-1-dioxo-1,4-dihydro-1λ^6-benzo[1,2,4]thiadiazin-7-yl}-N-methyl-methanesulfonamide] |
| 100 to 3000 | CC(C)CCn1c(=O)c(C2=CS(=O)(=O)c3cc(N(C)S(C)(=O)=O)ccc3N2)c(O)c2cccn21 [Example 7, N-{3-[4-Hydroxy-1-(3-methyl-butyl)-2-oxo-1,2-dihydro-pyrrolo[1,2-b]pyridazin-3-yl]-1,1-dioxo-1,4-dihydro-1λ^6-benzo[1,4]thiazin-7-yl}-N-methyl-methanesulfonamide] |
| 100 to 3000 | CC(C)CCn1c(=O)c(C2=NS(=O)(=O)c3cc(NS(=O)(=O)C4CC4)ccc3N2)c(O)c2cccn21 [Example 13, Cyclopropanesulfonic acid {3-[4-hydroxy-1-(3-methyl-butyl)-2-oxo-1,2-dihydro-pyrrolo[1,2-b]pyridazin-3-yl]-1,1-dioxo-1,4-dihydro-1λ^6-benzo[1,2,4]thiadiazin-7-yl}-amide] |
| < 100 | CS(=O)(=O)Nc1ccc2c(c1)S(=O)(=O)N=C(c1c(O)c3cccn3n(Cc3ccc(F)cc3)c1=O)N2 [Example 9, N-{3-[1-(4-Fluoro-benzyl)-4-hydroxy-2-oxo-1,2-dihydro-pyrrolo[1,2-b]pyridazin-3-yl]-1,1-dioxo-1,4-dihydro-1λ^6-benzo[1,2,4]thiadiazin-7-yl}-methanesulfonamide] |
| 100 to 3000 | O=c1c(C2=NS(=O)(=O)c3cc(C4CCCS4(=O)=O)ccc3N2)c(O)c2cccn2n1Cc1ccc(F)cc1 (centres unmarked) [Example 11, 3-[7-(1,1-Dioxo-tetrahydro-1λ^6-thiophen-2-yl)-1,1-dioxo-1,4-dihydro-1λ^6-benzo[1,2,4]thiadiazin-3-yl]-1-(4-fluoro-benzyl)-4-hydroxy-pyrrolo[1,2-b]pyridazin-2-one] |
| < 100 | CC(C)CCn1c(=O)c(C2=NS(=O)(=O)c3cc(NS(C)(=O)=O)ccc3N2)c(O)c2cc(F)cn21 [Example 14, N-{3-[6-Fluoro-4-hydroxy-1-(3-methyl-butyl)-2-oxo-1,2-dihydro-pyrrolo[1,2-b]pyridazin-3-yl]-1,1-dioxo-1,4-dihydro-1λ^6-benzo[1,2,4]thiadiazin-7-yl}-methanesulfonamide] |
| 100 to 3000 | CC(C)CCn1c(=O)c(C2=NS(=O)(=O)c3ccccc3N2)c(O)c2cccn21 [Example 1, 3-(1,1-Dioxo-1,4-dihydro-1λ^6-benzo[1,2,4]thiadiazin-3-yl)-4-hydroxy-1-(3-methyl-butyl)-pyrrolo[1,2-b]pyridazin-2-one] |
| 100 to 3000 | COc1ccc2c(c1)S(=O)(=O)N=C(c1c(O)c3cccn3n(CCC(C)C)c1=O)N2 [Example 2, 4-Hydroxy-3-(7-methoxy-1,1-dioxo-1,4-dihydro-1λ^6-benzo[1,2,4]thiadiazin-3-yl)-1-(3-methyl-butyl)-pyrrolo[1,2-b]pyridazin-2-one] |
